# Assay results reported in patent US20110105538A1, “DRUG RESPONSE MARKERS” (GUY'S & ST THOMAS'S NHS FOUNDATION TRUST, priority 2008, published 2011).
# Read-outs that look alike come from different tables or passages of the source.
# How the values were obtained:
# [1] = system: patients with Inflammatory Bowel Disease; details: for Allele frequencies: Deletion allele / Allele frequencies: Insertion Allele: number of alleles (%); for Genotype: Insertion no / Genotype: Insertion yes / Genotype frequencies: Insertion no / Genotype frequencies: Insertion yes: number of patients
# [2] = system: patients with IBD (Inflammatory Bowel Disease); experiment: Prospective cohort starting 2 mg/kg AZA for IBD (Example 2): response versus AOX3404A>G, TPMT activity and HLA-G markers
# [3] = system: patients with Inflammatory Bowel Disease; details: for Genotype frequencies: Insertion no / Genotype frequencies: Insertion yes: number of patients (%); for Allelic frequencies: Deletion allele / Allelic frequencies: Insertion Allele: number of alleles (%)
# [4] = Crohn's Disease Patients, Outcome Failure
# [5] = Crohn's Disease Patients, Outcome Response
# [6] = Ulcerative Colitis Patients, Outcome Failure
# [7] = Ulcerative Colitis Patients, Outcome Response
# [8] = of cohort of 182 patients starting 2 mg/kg
# [9] = number of patients with side effect
smiles,measurement,setting,value
Cn1cnc([N+](=O)[O-])c1Sc1ncnc2nc[nH]c12 [azathioprine],Allele frequencies: Deletion allele,"[1]; All Patients, Outcome Failure",50 (64%)
same,Allele frequencies: Insertion Allele,"[1]; All Patients, Outcome Failure",30 (36%)
same,Allele frequencies: Deletion allele,"[1]; All Patients, Outcome Response",39 (34%)
same,Allele frequencies: Insertion Allele,"[1]; All Patients, Outcome Response",75 (65%)
same,Genotype: Insertion no,"[1]; CD, Fail",2
same,Genotype: Insertion yes,"[1]; CD, Fail",17
same,Genotype: Insertion no,"[1]; CD, Response",15
same,Genotype: Insertion yes,"[1]; CD, Response",14
same,Allele frequencies: Deletion allele,[1]; [4],14 (37%)
same,Allele frequencies: Insertion Allele,[1]; [4],24 (63%)
same,Allele frequencies: Deletion allele,[1]; [5],45 (69%)
same,Allele frequencies: Insertion Allele,[1]; [5],18 (31%)
same,Genotype: Insertion no,"[1]; UC, Fail",3
same,Genotype: Insertion yes,"[1]; UC, Fail",18
same,Genotype: Insertion no,"[1]; UC, Response",10
same,Genotype: Insertion yes,"[1]; UC, Response",18
same,Allele frequencies: Deletion allele,[1]; [6],16 (38%)
same,Allele frequencies: Insertion Allele,[1]; [6],26 (62%)
same,Allele frequencies: Deletion allele,[1]; [7],45 (62%)
same,Allele frequencies: Insertion Allele,[1]; [7],21 (37%)
same,Genotype frequencies: Insertion no,"[1]; all patients, Outcome Fail",21
same,Genotype frequencies: Insertion yes,"[1]; all patients, Outcome Fail",30
same,Genotype frequencies: Insertion no,"[1]; all patients, Outcome Response",50
same,Genotype frequencies: Insertion yes,"[1]; all patients, Outcome Response",32
same,Fisher's exact test OR,"[1]; allele frequencies, All Patients",OR = 3.2
same,Fisher's exact test OR,"[1]; allele frequencies, Crohn's Disease Patients",OR = 4.2
same,Fisher's exact test OR,"[1]; allele frequencies, Ulcerative Colitis Patients",OR = 3.4
same,Fisher's exact test OR,"[1]; genotype frequencies, all patients","OR = 2.2,"
same,Fisher's exact test OR,"[1]; genotype, CD","OR = 9,"
same,Fisher's exact test OR,"[1]; genotype, UC","OR = 3,"
same,patients identified as responders to therapy,"[1]; of 100 patients completing minimum three months, steroid withdrawal and Harvey Bradshaw index less than four",50 patients
same,withdrew due to intolerable side-effects,[1]; of the 140 patients recruited,40
same,non-responders,[2]; [8],44
same,responders,[2]; [8],66
same,those discontinuing treatment due to side effects,[2]; [8],72
same,chance of responding,[2]; those with all adverse predictors,14%
same,chance of responding,[2]; those with no adverse predictors,95%
CN(Cc1cnc2nc(N)nc(N)c2n1)c1ccc(C(=O)N[C@@H](CCC(=O)O)C(=O)O)cc1 [methotrexate],association between side effects and folate supplementation,"[3]; 94 patients on folate, 39 never on folate",No association
same,Genotype frequencies: Insertion no,[3]; Outcome Fail (91 pts.),21 (23%%)
same,Genotype frequencies: Insertion yes,[3]; Outcome Fail (91 pts.),70 (77%)
same,Allelic frequencies: Deletion allele,[3]; Outcome Failure,86 (47%)
same,Allelic frequencies: Insertion Allele,[3]; Outcome Failure,96 (52%)
same,Genotype frequencies: Insertion no,[3]; Outcome Response (91 pts.),40 (44%)
same,Genotype frequencies: Insertion yes,[3]; Outcome Response (91 pts.),51 (56%)
same,Allelic frequencies: Deletion allele,[3]; Outcome Response,113 (62%)
same,Allelic frequencies: Insertion Allele,[3]; Outcome Response,69 (37%)
same,Fisher's exact test OR,"[3]; allelic frequencies, response vs failure",OR = 1.8
same,Fisher's exact test OR,"[3]; genotype frequencies, response vs fail","OR = 2.6,"
same,patients developed side effects,[3]; methotrexate group,45 patients
same,patients withdrawn from therapy as a direct consequence of their side-effect,[3]; methotrexate group,21 patients
same,abdominal pain,[3]; [9],one
same,alopecia,[3]; [9],one
same,haematological abnormalities including neutropenia,[3]; [9],four
same,minor infections,[3]; [9],four
same,mucositis,[3]; [9],two
same,muscle and joint pains,[3]; [9],three
same,nausea,[3]; [9],16
same,skin rash,[3]; [9],three
same,transient LFT abnormalities,[3]; [9],10
same,patients responded to treatment (percent),[3]; of 187 patients completing at least three months of therapy,51%
same,patients responded to treatment,"[3]; of 187 patients completing at least three months of therapy, response = steroid withdrawal or documented efficacy",97 patients
same,response to treatment between administration regimes,[3]; oral vs subcutaneous vs intramuscular induction progressing to oral,no difference in the response to treatment
